From patent publication US6350743B1, “Cytotoxic pyridoacridine alkaloids” (Instituto Biomar, S.A., priority 1997, dated 2002)

Key:
Format in all cases: cell-based
[1] = system: P-388 (suspension culture of a lymphoid neoplasm from DBA/2 mouse); assay: Antitumor screening, P-388 cell growth; details: P388, 72 h, P-388 cells, three days of incubation, approximate IC50 vs control growth
Procedure: (§1) Cells were maintained in logarithmic phase of growth in Eagle's Minimum Essential Medium, with Earle's Balanced Salts, with 2.0 mM L-glutamine, with non-essential amino acids, without sodium bicarbonate (EMEM/neaa); supplemented with 10% Fetal Calf Serum (FCS), 10^−2 M sodium bicarbonate and 0.1 g/l penicillin+G streptomycin sulfate.
(§2) A screening procedure has been carried out to determine and compare the antitumor activity of these compounds, using an adapted form of the method described by Bergeron et al. (Reference 15: Raymond J. Bergeron, Paul F. Cavanaugh, Jr., Steven J. Kline, Robert G. Hughes, Jr., Gary T. Elliot and Carl W. Porter. Antineoplastic and antiherpetic activity of spermidine catecholamide iron chelators. Biochem. Bioph. Res. Comm. 1984, 121, 848-854). The antitumor cells employed were P-388 (suspension culture of a lymphoid neoplasm from DBA/2 mouse), A-549 (monolayer culture of a human lung carcinoma), HT-29 (monolayer culture of a human colon carcinoma) and MEL-28 (monolayer culture of a human melanoma).
P-388 cells were seeded into 16 mm wells at 1×10^4 cells per well in 1 ml aliquots of MEM 5FCS containing the indicated concentration of drug. A separate set of cultures without drug was seeded as control growth to ensure that cells remained in exponential phase of growth. All determinations were carried out in duplicate. […]

[2] = system: A-549 (monolayer culture of a human lung carcinoma); assay: Antitumor screening, A-549 cell growth (Crystal Violet); details: A549, 72 h, A-549 cells, three days of incubation, approximate IC50
Procedure: as §1, §2
(§3) A-549, HT-29 cells were seeded into 16 mm wells at 2×10^4 cells per well in 1 ml aliquots of MEM 10FCS containing the indicated concentration of drug. […] An approximately IC50 was determined by comparing the growth in wells with drug to the growth in wells control.

[3] = system: HT-29 (monolayer culture of a human colon carcinoma); assay: Antitumor screening, HT-29 cell growth (Crystal Violet); details: 72 h, HT-29 cells, three days of incubation, approximate IC50
Procedure: as §1, §2, §3

[4] = system: MEL-28 (monolayer culture of a human melanoma); assay: Antitumor screening, MEL-28 cell growth; details: SK-MEL-28, MEL-28 cells, approximate IC50
Procedure: as §1, §2, §3

- IC50 [1]: 1330 nM
- IC50 [2]: 270 nM
- IC50 [3]: 2660 nM
- IC50 [4]: 530 nM
SMILES: CN(C)CCc1c2c(c3nccc4c3c1Nc1ccccc1-4)NC(=O)CS2 [Shermilamine D]
